Results: paper PMC4124873, “Photo-antagonism of the GABAA receptor” (Nature Communications, 2014)
“And” between values parts separate entries of the source, which are not always exact repeats. Identical values can stand only once. Like-named read-outs stand apart in the source and are kept apart here.

Columns and labels:
α1β2γ2 GABAA receptor [1] = target: T1, α1β2γ2 GABAA receptor (Mus musculus, UniProt P62812+P63137); test: Schild analysis of competitive antagonism in HEK cells
α1β2γ2 GABAA receptor [2] = target: T1, α1β2γ2 GABAA receptor; conditions: for irreversible reduction/block of GABA current post-UV: one cycle of UV
[3] = target: T2, α1R119Qβ2R207Qγ2 GABAA receptor (Mus musculus, UniProt P62812+P63137, R146Q/R231Q); test: cell-based
α3β3γ2 GABAA receptor = target: T3, α3β3γ2 GABAA receptor (Mus musculus, UniProt P26049+P63080); test: GZ-B1 inhibition of GABA EC50 responses, receptor subtype selectivity in HEK cells; format: cell-based, murine; conditions: α3β3γ2, GABA EC50 response, ANOVA Dunnett
T3 construct: expressed in transfected cells; host or cells: HEK cells
Excerpt: (§1) […]; pH 7.4 (adjusted with 1 M NaOH).

α4β3δ GABAA receptor = target: T4, α4β3δ GABAA receptor (Mus musculus, UniProt P63080+Q9D6F4); test: as above; format: cell-based, murine; conditions: GABA EC50 response, ANOVA Dunnett
T4 construct: expressed in transfected cells; host or cells: HEK cells
Excerpt: as §1

[4] = target: T5, α1R84Qβ2R207Qγ2 GABAA receptor (Mus musculus, UniProt P62812+P63137, R111Q/R231Q); conditions: α1R84Qβ2R207Qγ2 double mutant
[5] = target: T6, α1β2R207Qγ2 GABAA receptor (Mus musculus, UniProt P62812+P63137, R231Q); test: cell-based
[6] = target: T7, α1R84Qβ2γ2 GABAA receptor (Mus musculus, UniProt P62812+P63137, R111Q); test: cell-based
[7] = target: T8, α1β2E155Q+R207Qγ2 GABAA receptor (Mus musculus, UniProt P62812+P63137, E179Q/R231Q); test: cell-based
[8] = target: T5, α1R84Qβ2R207Qγ2 GABAA receptor; test: cell-based
[9] = target: T7, α1R84Qβ2γ2 GABAA receptor; test: cell-based; conditions: HEK293, read-out: maximum GABA current after UV in the presence of GZ-B1, % of control
[10] = target: T9, α1β2γ2 (wt) GABAA receptor (Mus musculus, UniProt P62812+P63137); test: cell-based
[11] = target: T7, α1R84Qβ2γ2 GABAA receptor
[12] = target: T10, α1R119Qβ2γ2 GABAA receptor (Mus musculus, UniProt P62812+P63137, R146Q); conditions: for Max inhibition: α1R119Qβ2γ2; for potency increase compared with wild type: α1R119Qβ2γ2 vs wild type
[13] = target: α1β2D162N,D163Nγ2 GABAA receptor (Mus musculus, UniProt P62812+P63137, D186N/D187N); test: cell-based; conditions: HEK293, read-out: maximum GABA current after UV in the presence of GZ-B1, % of control
[14] = target: α1β2D162+163Nγ2 GABAA receptor (Mus musculus, UniProt P62812+P63137, D186N/D187N); test: cell-based
[15] = target: T9, α1β2γ2 (wt) GABAA receptor; conditions: for Max inhibition: inhibition of GABA EC50 response, wt
[16] = target: α1β2E155Qγ2 GABAA receptor (Mus musculus, UniProt P62812+P63137, E179Q); test: cell-based
[17] = target: T11, α1R84+119Qβ2D162+163Nγ2 GABAA receptor (Mus musculus, UniProt P62812+P63137, D186N/D187N/R111Q/R146Q); test: cell-based; conditions: HEK293, read-out: maximum GABA current after UV in the presence of GZ-B1, % of control
[18] = target: T10, α1R119Qβ2γ2 GABAA receptor; test: cell-based; conditions: HEK293, read-out: maximum GABA current after UV in the presence of GZ-B1, % of control
[19] = target: T12, α1R119Qβ2E155Q+R207Qγ2 GABAA receptor (Mus musculus, UniProt P62812+P63137, E179Q/R146Q/R231Q)
[20] = target: T11, α1R84+119Qβ2D162+163Nγ2 GABAA receptor; test: cell-based
[21] = target: T12, α1R119Qβ2E155Q+R207Qγ2 GABAA receptor; test: cell-based
[22] = target: T6, α1β2R207Qγ2 GABAA receptor
[23] = target: T8, α1β2E155Q+R207Qγ2 GABAA receptor
[24] = target: T10, α1R119Qβ2γ2 GABAA receptor; test: cell-based
[25] = target: T2, α1R119Qβ2R207Qγ2 GABAA receptor
[26] = system: synaptic GABAA receptors of cerebellar granule cells; test: sIPSCs in cultured cerebellar granule cells after UV photoactivation; conditions: 10 μM GZ-B1, one UV cycle
α1β2γ2 GABAA receptor [27] = target: T1, α1β2γ2 GABAA receptor; test: cell-based; conditions: HEK293, read-out: maximum GABA current after UV in the presence of GZ-B1, % of control
[28] = target: α1R119Qβ2E155Qγ2 GABAA receptor (Mus musculus, UniProt P62812+P63137, E179Q/R146Q); test: cell-based
[29] = target: T9, α1β2γ2 (wt) GABAA receptor; set-up: expressed in transfected cells; host or cells: HEK cells; conditions: α1β2γ2, GABA EC50 response; cited from earlier work
[30] = IC50, inhibition of GABA EC50 response, α1β2R207Qγ2
[31] = IC50, inhibition of GABA EC50 response, α1R119Qβ2γ2
[32] = IC50, α1R119Qβ2γ2, as printed in text
[33] = 10 μM GABA, 10 μM antagonist, one cycle of 10 UV flashes, 3–5 min wash

Structure (SMILES)	Kb (α1β2γ2 GABAA receptor [1])	irreversible reduction/block of GABA current post-UV (α1β2γ2 GABAA receptor [2]; 10 μM antagonist)	IC50 [3]	IC50 [5, 30]	IC50 [7]	IC50 [10]	Max inhibition [12]	potency increase compared with wild type [12]	Max inhibition [15]	IC50 [16]	Max inhibition [19]	IC50 [21]	Max inhibition [22]	Max inhibition [23]	IC50 [24, 31]	IC50 [24, 32]	Max inhibition [25]	GABA-induced current post-UV, normalized to control (α1β2γ2 GABAA receptor [2]; [33])	IC50 [28]	further results
[N-]=[N+]=Nc1ccc(COc2ccc(-c3ccc(=N)n(CCCC(=O)O)n3)cc2)cc1 [GZ-A1]	0.044 µM	~ 30%																		GABA-induced current post-UV, normalized to control (α1β2γ2 GABAA receptor [2]): 71.3±6.8%
N=c1ccc(-c2ccc(OCc3ccc(C(=O)c4ccccc4)cc3)cc2)nn1CCCC(=O)O [GZ-B1]	0.153 µM	~ 50%	0.418 µM	0.487 µM	0.47 µM	0.155 µM	100%	~ 2 fold	100%	> 100 µM	72 ± 4%	0.426 µM	83 ± 3%	100%	0.0715 µM	0.072 µM	75 ± 2%	50.8±1.8%	> 100 µM	GZ-B1 potency (IC50) compared with α1β3γ2 (α3β3γ2 GABAA receptor): significantly lower potencies; GZ-B1 potency (IC50) compared with α1β3γ2 (α4β3δ GABAA receptor): significantly lower potencies; reduction (loss) of GZ-B1 potency [4]: 1,000 fold and > 1,000 fold; IC50 ([5]; IC50, α1β2R207Qγ2, as printed in text): 0.487 µM; IC50 ([6]; IC50, inhibition of GABA EC50 response): 4.22 µM; IC50 ([6]; pIC50, inhibition of GABA EC50 response): 4.23 µM; IC50 [8]: 182 µM; remaining activity at 100 µM [9]: 84 ± 4.9%; Max inhibition [11]: 100%; remaining activity at 100 µM [13]: 71 ± 2.6%; IC50 [14]: 13.5 µM; remaining activity at 100 µM [17]: 97 ± 3.4%; remaining activity at 10 µM [18]: 73 ± 2.6%; IC50 [20]: 258 µM; reduction in synaptic current (sIPSC) amplitude [26]: ≤ 90%; remaining activity at 10 µM (α1β2γ2 GABAA receptor [27]): 62 ± 4.2%
N=c1ccc(-c2ccc(C(=O)c3ccccc3)cc2)nn1CCCC(=O)O [GZ-B2]	0.318 µM																	98.3±4.2%		relative potency compared with gabazine ([15]; α1β2γ2, GABA EC50 response): equipotent
N=c1ccc(-c2ccc(OCc3ccc(C4(C(F)(F)F)N=N4)cc3)cc2)nn1CCCC(=O)O [GZ-D1]	0.132 µM	~ 20%																79.0±4.5%		
N=c1ccc(-c2ccc(OCc3ccccc3)cc2)nn1CCCC(=O)O [GZ-i1]	0.013 µM																			increase in potency over gabazine [29]: more than 30 fold; increase in affinity (Ki) over gabazine (α1β2γ2 GABAA receptor [1]; Schild analysis): 20 fold
COc1ccc(-c2ccc(=N)n(CCCC(=O)O)n2)cc1 [gabazine, reference compound]	0.3 µM		3.75 µM	1.71 µM	1.38 µM	0.349 µM	100%	~ 2 fold	100%	> 100 µM	94 ± 1%	2.26 µM	100%	100%	0.188 µM	0.188 µM	100%	101.6±3.3%	> 100 µM	
